Holding throughout (experiment): Test A antibacterial assay, MIC by microtitration
What all share (type): cell-based

One assay has as its system H. influenzae HI-3542. The settings on record: Haemophilus influenzae, HI3542; Gram Negative Bacteria; strain HI-3542; read-out: Minimum Inhibitory Concentrations H. influenzae HI-3542. As for the experimental part:
(§1) Test A—Antibacterial Assays
(§2) The compounds of the present invention were tested against an assortment of Gram-negative and Gram-positive organisms using standard microtitration techniques (Cohen et. al., Antimicrob., 1985;28:766; Heifetz, et. al., Antimicrob., 1974;6:124).

Another assay has as its system M. catarrhalis BC-3531. The settings on record: Moraxella catarrhalis, BC3531; Gram Negative Bacteria; strain BC-3531; read-out: Minimum Inhibitory Concentrations M. catarrhalis BC-3531. The protocol:
as §1, §2

The test system of a further assay is E. coli EC-2549. The settings on record: Escherichia coli, EC2549; Gram Negative Bacteria; strain EC-2549; read-out: Minimum Inhibitory Concentrations E. coli EC-2549. The protocol:
as §1, §2

Another assay relates to E. faecalis MGH-2. The settings on record: Enterococcus faecalis, MGH2; Gram Positive Bacteria; strain MGH-2; read-out: Minimum Inhibitory Concentrations E. faecalis MGH-2. As for the experimental part:
as §1, §2

A further assay concerns S. aureus UC-76. The settings on record: Staphylococcus aureus, UC76; Gram Positive Bacteria; strain UC-76; read-out: Minimum Inhibitory Concentrations S. aureus UC-76. As for the experimental part: as §1, §2
A further assay deals with S pyogenes C203. The settings on record: Gram Positive Bacteria; strain C203; read-out: Minimum Inhibitory Concentrations S pyogenes C203. As for the experimental part:
as §1, §2

Consider five molecules from US20050096297A1, “Antibacterial agents” (priority 2003, published 2005).

Converted amounts (≈) assume the structure as drawn.

As for `Cc1c(N2CC(O)(C(F)(F)F)C2)c(F)cc2c(=O)c(C(=O)O)cn(C3CC3)c12`, the MIC with H. influenzae HI-3542 was found to be 0.03 µg/mL (≈ 0.0749 µM); in the assay on M. catarrhalis BC-3531, 0.06 µg/mL (≈ 0.15 µM); in the assay on E. coli EC-2549, 0.0004 µg/mL (≈ 0.000999 µM).
In the same order, the values of `Cc1c(N2CC(CCO)C2)c(F)cc2c(=O)c(C(=O)O)cn(C3CC3)c12` [drawing 130] are 0.008 µg/mL (≈ 0.0222 µM), 0.015 µg/mL (≈ 0.0416 µM) and 0.002 µg/mL (≈ 0.00555 µM).
As to `O=C(O)c1cn(C2CC2)c2c(Cl)c(N3CC(O)(C4CC4)C3)c(F)cc2c1=O` [drawing 132], the MIC came out at 0.03 µg/mL (≈ 0.0764 µM) in the assay with H. influenzae HI-3542, 0.03 µg/mL (≈ 0.0764 µM) with M. catarrhalis BC-3531 and 0.002 µg/mL (≈ 0.00509 µM) with E. coli EC-2549.
Take `Cc1c(N2CC(CCO)C2)c(F)cc2c(=O)c(C(=O)O)cn(C3CC3)c12` [drawing 133]: the MIC is 0.25 µg/mL (≈ 0.694 µM) with E. faecalis MGH-2, 0.03 µg/mL (≈ 0.0832 µM) with S. aureus UC-76 and 0.25 µg/mL (≈ 0.694 µM) in the assay with S pyogenes C203.
With `O=C(O)c1cn(C2CC2)c2c(Cl)c(N3CC(O)(C4CC4)C3)c(F)cc2c1=O` [drawing 135], the MIC with E. faecalis MGH-2 worked out at 0.5 µg/mL (≈ 1.27 µM); in the assay with S. aureus UC-76, 0.03 µg/mL (≈ 0.0764 µM); in the assay with S pyogenes C203 it was 0.5 µg/mL (≈ 1.27 µM).
